Assay results published in PubChem BioAssay AID248 (DTP/NCI, 2004).
Where “and” joins values, the source holds several entries; their conditions need not be identical. Equal entries are not always repeated. Inconclusive results and toxic doses are left out. Rule as the data show it: active = T/C of 150% or more; inactive = T/C below 125%.

System: L1210 leukemia ip in BDF1 mice, survival T/C
Assay: NCI In Vivo Anticancer Drug Screen. Data for tumor model L1210 Leukemia (intraperitoneal) in B6D2F1 (BDF1) mice
Conditions: endpoint: mean survival time, higher = longer survival
How it was run: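 Transplantable tumor model; survival measured in treated vs vehicle control mice. Value = treated/control.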

[1] = dose: 25.0 mg/kg/injection, schedule: Q01DX009 (ip), vehicle: saline
[2] = dose: 25.0 mg/kg/injection, schedule: Q04DX003 (ip), vehicle: saline
[3] = dose: 100.0 mg/kg/injection, schedule: Q01DX001 (ip), vehicle: saline
[4] = dose: 100.0 mg/kg/injection, schedule: Q01DX009 (ip), vehicle: saline
[5] = dose: 100.0 mg/kg/injection, schedule: Q04DX003 (ip), vehicle: saline
[6] = dose: 6.25 mg/kg/injection, schedule: Q01DX009 (ip), vehicle: saline
[7] = dose: 12.5 mg/kg/injection, schedule: Q01DX009 (ip), vehicle: saline
[8] = dose: 100.0 mg/kg/injection, schedule: Q04DX003 (ip), vehicle: Klucel (hydroxypropylcellulose) (HPC)
[9] = dose: 100.0 mg/kg/injection, schedule: Q04DX003 (ip), vehicle: saline with Tween-80
[10] = dose: 200.0 mg/kg/injection, schedule: Q04DX003 (ip), vehicle: saline with Tween-80
[11] = dose: 200.0 mg/kg/injection, schedule: Q01DX001 (ip), vehicle: saline
[12] = dose: 400.0 mg/kg/injection, schedule: Q01DX001 (ip), vehicle: saline
[13] = dose: 100.0 mg/kg/injection, schedule: Q01DX009 (ip), vehicle: Klucel (hydroxypropylcellulose) (HPC)
[14] = dose: 200.0 mg/kg/injection, schedule: Q01DX009 (ip), vehicle: Klucel (hydroxypropylcellulose) (HPC)
[15] = dose: 100.0 mg/kg/injection, schedule: Q01DX009 (ip), vehicle: saline with Tween-80
[16] = dose: 200.0 mg/kg/injection, schedule: Q01DX009 (ip), vehicle: saline with Tween-80
[17] = dose: 400.0 mg/kg/injection, schedule: Q01DX009 (ip), vehicle: saline with Tween-80

Measured: T/C

O=C(CCl)C1C(O)=[N+](c2ccccc2)C2C=CC=CN12 (centres undefined)
inactive: [1] 92 % of control | [2] 92 % of control | dose: 50.0 mg/kg/injection, schedule: Q01DX009 (ip), vehicle: saline 89 % of control | dose: 50.0 mg/kg/injection, schedule: Q04DX003 (ip), vehicle: saline 102 % of control | [3] 105 % of control | [4] 87 % of control | [5] 95 % of control | dose: 150.0 mg/kg/injection, schedule: Q01DX009 (ip), vehicle: saline 95 % of control | dose: 225.0 mg/kg/injection, schedule: Q01DX009 (ip), vehicle: saline 95 % of control | dose: 335.0 mg/kg/injection, schedule: Q01DX009 (ip), vehicle: saline 95 % of control

CC(C)=CCNc1ncnc2c1nnn2C1OC(CO)C(O)C1O (centres undefined)
inactive: dose: 100.0 mg/kg/injection, schedule: Q01DX001 (ip), vehicle: water 105 % of control | dose: 200.0 mg/kg/injection, schedule: Q01DX001 (ip), vehicle: water 101 % of control | dose: 400.0 mg/kg/injection, schedule: Q01DX001 (ip), vehicle: water 101 % of control

C[N+](C)(C)CCOC(=O)c1cccc(CBr)c1CBr
inactive: [6] 103 % of control | dose: 6.25 mg/kg/injection, schedule: Q04DX003 (ip), vehicle: saline 104 % of control | [7] 97 % of control | dose: 12.5 mg/kg/injection, schedule: Q04DX003 (ip), vehicle: saline 98 % of control | [1] 97 % of control | [2] 104 % of control

NC(N)=NC(N)=Nc1ccc(Cl)cc1
inactive: [8] 103 % of control

C=C1C(=O)OC2CC(C)CCC/C(CO)=C/C(OC(=O)/C(=C/CO)CO)C12 (centres undefined)
inactive: dose: 3.75 mg/kg/injection, schedule: Q04DX003 (ip), vehicle: saline 89 % of control | dose: 4.9 mg/kg/injection, schedule: Q01DX009 (ip), vehicle: acetone 93 % of control | dose: 7.5 mg/kg/injection, schedule: Q01DX001 (ip), vehicle: acetone 97 % of control | dose: 7.5 mg/kg/injection, schedule: Q01DX009 (ip), vehicle: acetone 98 % of control | dose: 7.5 mg/kg/injection, schedule: Q04DX003 (ip), vehicle: saline 100 % of control | dose: 11.0 mg/kg/injection, schedule: Q01DX009 (ip), vehicle: acetone 93 % of control | dose: 15.0 mg/kg/injection, schedule: Q01DX001 (ip), vehicle: acetone 103 % of control | dose: 15.0 mg/kg/injection, schedule: Q04DX003 (ip), vehicle: saline 99 % of control

O=C1N(O)C2(CCCC(O)C2O)C(=O)C12CCCCC2 (centres undefined)
inactive: dose: 75.0 mg/kg/injection, schedule: Q01DX001 (ip), vehicle: saline 103 % of control | dose: 150.0 mg/kg/injection, schedule: Q01DX001 (ip), vehicle: saline 96 % of control | dose: 300.0 mg/kg/injection, schedule: Q01DX001 (ip), vehicle: saline 96 % of control

O=C(O)C1CC1C(=O)c1ccccc1 (centres undefined)
inactive: dose: 25.0 mg/kg/injection, schedule: Q01DX001 (ip), vehicle: Klucel (hydroxypropylcellulose) (HPC) 98 % of control | dose: 50.0 mg/kg/injection, schedule: Q01DX001 (ip), vehicle: Klucel (hydroxypropylcellulose) (HPC) 97 % of control | dose: 100.0 mg/kg/injection, schedule: Q01DX001 (ip), vehicle: Klucel (hydroxypropylcellulose) (HPC) 96 % of control and 98 % of control | dose: 200.0 mg/kg/injection, schedule: Q01DX001 (ip), vehicle: Klucel (hydroxypropylcellulose) (HPC) 86 % of control | dose: 400.0 mg/kg/injection, schedule: Q01DX001 (ip), vehicle: Klucel (hydroxypropylcellulose) (HPC) 103 % of control

CN1CCCCC1CCC1c2ccccc2CCc2ccccc21 (centres undefined)
inactive: dose: 1.56 mg/kg/injection, schedule: Q01DX009 (ip), vehicle: saline 104 % of control | dose: 3.12 mg/kg/injection, schedule: Q01DX009 (ip), vehicle: saline 104 % of control | [6] 98 % of control and 99 % of control | [7] 94 % of control and 103 % of control | [1] 107 % of control and 116 % of control

CNC(C)(C)C
inactive: [9] 93 % of control | [10] 93 % of control | dose: 400.0 mg/kg/injection, schedule: Q04DX003 (ip), vehicle: saline with Tween-80 86 % of control

CNC(=O)OCCO
inactive: [3] 100 % of control | [11] 101 % of control | [12] 97 % of control

CSc1ccc(OC(=O)Nc2ccc(C)cc2[N+](=O)[O-])cc1
inactive: dose: 50.0 mg/kg/injection, schedule: Q01DX009 (ip), vehicle: Klucel (hydroxypropylcellulose) (HPC) 90 % of control | [13] 90 % of control | [8] 97 % of control | [14] 100 % of control | dose: 200.0 mg/kg/injection, schedule: Q04DX003 (ip), vehicle: Klucel (hydroxypropylcellulose) (HPC) 99 % of control | dose: 400.0 mg/kg/injection, schedule: Q04DX003 (ip), vehicle: Klucel (hydroxypropylcellulose) (HPC) 97 % of control

O=C(CSc1ncc2ccccn12)c1ccccc1
inactive: dose: 100.0 mg/kg/injection, schedule: Q04DX002 (ip), vehicle: saline with Tween-80 106 % of control | dose: 200.0 mg/kg/injection, schedule: Q04DX002 (ip), vehicle: saline with Tween-80 92 % of control | dose: 400.0 mg/kg/injection, schedule: Q04DX002 (ip), vehicle: saline with Tween-80 95 % of control

c1ccc(C[Si](Cc2ccccc2)Cc2ccccc2)cc1
inactive: [3] 105 % of control | [4] 88 % of control | [11] 90 % of control | dose: 200.0 mg/kg/injection, schedule: Q01DX009 (ip), vehicle: saline 88 % of control | [12] 104 % of control | dose: 400.0 mg/kg/injection, schedule: Q01DX009 (ip), vehicle: saline 90 % of control

CC12c3ccccc3C(c3ccccc31)C1C(=O)OC(=O)C12 (centres undefined)
inactive: dose: 100.0 mg/kg/injection, schedule: Q01DX001 (ip), vehicle: carboxymethylcellulose (CMC) 98 % of control | [9] 90 % of control | dose: 200.0 mg/kg/injection, schedule: Q01DX001 (ip), vehicle: carboxymethylcellulose (CMC) 96 % of control | [10] 92 % of control | dose: 400.0 mg/kg/injection, schedule: Q01DX001 (ip), vehicle: carboxymethylcellulose (CMC) 93 % of control

O=C1CC(c2c[nH]c3nccnc23)NN1 (centres undefined)
inactive: dose: 6.25 mg/kg/injection, schedule: Q01DX009 (ip), vehicle: water 100 % of control | dose: 12.5 mg/kg/injection, schedule: Q01DX009 (ip), vehicle: water 100 % of control | dose: 25.0 mg/kg/injection, schedule: Q01DX009 (ip), vehicle: water 99 % of control | dose: 50.0 mg/kg/injection, schedule: Q01DX009 (ip), vehicle: water 105 % of control | dose: 100.0 mg/kg/injection, schedule: Q01DX009 (ip), vehicle: water 94 % of control | dose: 200.0 mg/kg/injection, schedule: Q01DX009 (ip), vehicle: water 89 % of control

COC(=O)c1ccc(OCCOc2ccc(C(C)(C)CC(C)(C)C)cc2)c(N)c1
inactive: [13] 97 % of control | [14] 105 % of control | dose: 400.0 mg/kg/injection, schedule: Q01DX009 (ip), vehicle: Klucel (hydroxypropylcellulose) (HPC) 91 % of control

O=[N+]([O-])c1ccc(CN=NCc2ccc(Cl)cc2Cl)c(Cl)c1
inactive: dose: 50.0 mg/kg/injection, schedule: Q01DX009 (ip), vehicle: saline with Tween-80 90 % of control | [15] 100 % of control | [16] 100 % of control | [17] 95 % of control

CCCCCCC(=O)CCCC
inactive: [15] 102 % of control | [5] 98 % of control | [16] 111 % of control | dose: 200.0 mg/kg/injection, schedule: Q04DX003 (ip), vehicle: saline 88 % of control | [17] 98 % of control | dose: 400.0 mg/kg/injection, schedule: Q04DX003 (ip), vehicle: saline 94 % of control

CCOC(=O)CC1=NCCc2cc(OC)c(OC)cc21
inactive: dose: 25.0 mg/kg/injection, schedule: Q04DX002 (ip), vehicle: Klucel (hydroxypropylcellulose) (HPC) 102 % of control | dose: 50.0 mg/kg/injection, schedule: Q04DX002 (ip), vehicle: Klucel (hydroxypropylcellulose) (HPC) 99 % of control | dose: 100.0 mg/kg/injection, schedule: Q04DX002 (ip), vehicle: Klucel (hydroxypropylcellulose) (HPC) 96 % of control
